Laboratory results: ChEMBL document CHEMBL3045169, “In vitro evaluation of the antibacterial and antifungal activity of some new pyrazolyl-quinazolin-4(3H)-one derivatives” (2012)

Tests used:
Assay type in all cases: functional
Bacillus subtilis [1] = test: Antibacterial activity against Bacillus subtilis ATCC 6633 at 50 ug/ml by agar cup plate method; conditions: read-out: IZ
Escherichia coli [2] = test: Antibacterial activity against Escherichia coli ATCC 25922 at 50 ug/ml by agar cup-plate method; conditions: read-out: IZ
Bacillus subtilis [3] = test: Antibacterial activity against Bacillus subtilis ATCC 6633 at 100 ug/ml by agar cup plate method; conditions: read-out: IZ
Staphylococcus aureus [4] = test: Antibacterial activity against Staphylococcus aureus ATCC 9144 by agar cup-plate method relative to penicillin-G; parameters: concentration or dose not given beside the values
Candida albicans [5] = test: Antifungal activity against Candida albicans ATCC 10231 at 10 ug/ml by agar cup-plate method; conditions: read-out: IZ
Aspergillus niger [6] = test: Antifungal activity against Aspergillus niger ATCC 6275 at 10 ug/ml by agar cup-plate method; conditions: read-out: IZ
Bacillus subtilis [7] = test: Antibacterial activity against Bacillus subtilis ATCC 6633 by agar cup plate method relative to penicillin-G; parameters: concentration or dose not given beside the values
Pseudomonas aeruginosa [8] = test: Antibacterial activity against Pseudomonas aeruginosa ATCC 9027 at 50 ug/ml by agar cup-plate method; conditions: read-out: IZ
Staphylococcus aureus [9] = test: Antibacterial activity against Staphylococcus aureus ATCC 9144 at 50 ug/ml by agar cup-plate method; conditions: read-out: IZ
Staphylococcus aureus [10] = test: Antibacterial activity against Staphylococcus aureus ATCC 9144 at 100 ug/ml by agar cup-plate method; conditions: read-out: IZ
Escherichia coli [11] = test: Antibacterial activity against Escherichia coli ATCC 25922 at 100 ug/ml by agar cup-plate method; conditions: read-out: IZ
Aspergillus niger [12] = test: Antifungal activity against Aspergillus niger ATCC 6275 at 20 ug/ml by agar cup-plate method; conditions: read-out: IZ
Escherichia coli [13] = test: Antibacterial activity against Escherichia coli ATCC 25922 by agar cup-plate method relative to penicillin-G; parameters: concentration or dose not given beside the values
Pseudomonas aeruginosa [14] = test: Antibacterial activity against Pseudomonas aeruginosa ATCC 9027 at 100 ug/ml by agar cup-plate method; conditions: read-out: IZ
Candida albicans [15] = test: Antifungal activity against Candida albicans ATCC 10231 at 20 ug/ml by agar cup-plate method; conditions: read-out: IZ
Aspergillus niger [16] = test: Antifungal activity against Aspergillus niger ATCC 6275 by agar cup-plate method relative to fluconazole; parameters: concentration or dose not given beside the values
Candida albicans [17] = test: Antifungal activity against Candida albicans ATCC 10231 by agar cup-plate method relative to fluconazole; parameters: concentration or dose not given beside the values
Pseudomonas aeruginosa [18] = test: Antibacterial activity against Pseudomonas aeruginosa ATCC 9027 by agar cup-plate method relative to penicillin-G; parameters: concentration or dose not given beside the values

| SMILES | zone of inhibition at 50 µg/mL (Bacillus subtilis [1]) | zone of inhibition at 50 µg/mL (Escherichia coli [2]) | zone of inhibition at 100 µg/mL (Bacillus subtilis [3]) | Activity (Staphylococcus aureus [4]) | zone of inhibition at 10 µg/mL (Candida albicans [5]) | zone of inhibition at 10 µg/mL (Aspergillus niger [6]) | Activity (Bacillus subtilis [7]) | zone of inhibition at 50 µg/mL (Pseudomonas aeruginosa [8]) | zone of inhibition at 50 µg/mL (Staphylococcus aureus [9]) | zone of inhibition at 100 µg/mL (Staphylococcus aureus [10]) | zone of inhibition at 100 µg/mL (Escherichia coli [11]) | zone of inhibition at 20 µg/mL (Aspergillus niger [12]) | Activity (Escherichia coli [13]) | zone of inhibition at 100 µg/mL (Pseudomonas aeruginosa [14]) | zone of inhibition at 20 µg/mL (Candida albicans [15]) | Activity (Aspergillus niger [16]) | Activity (Candida albicans [17]) | Activity (Pseudomonas aeruginosa [18]) |
| --- | --- | --- | --- | --- | --- | --- | --- | --- | --- | --- | --- | --- | --- | --- | --- | --- | --- | --- |
| O=c1c2cc(I)ccc2nc(Cc2ccccc2Nc2ccccc2)n1NC1=NNC(c2ccccc2O)C1 (configuration not stated) | 9 mm | 7 mm | 11 mm | 38.15% | 9 mm | 8 mm | 41.49% | 8 mm | 8 mm | 10 mm | 9 mm | 10 mm | 34.11% | 10 mm | 12 mm | 38.11% | 49.95% | 39.56% |
| O=c1c2cc(I)ccc2nc(Cc2ccccc2Nc2ccccc2)n1NC1=NNC(c2cccc(O)c2)C1 (configuration not stated) | 11 mm | 7 mm | 13 mm | 42.34% | 0 mm | 0 mm | 47.05% | 8 mm | 10 mm | 12 mm | 9 mm | 7 mm | 34.11% | 10 mm | 7 mm | 45.04% | 49.07% | 39.56% |
| O=c1c2cc(I)ccc2nc(Cc2ccccc2Nc2ccccc2)n1NC1=NNC(c2ccc(O)cc2)C1 (configuration not stated) | 9 mm | 6 mm | 11 mm | 38.15% | 13 mm | 11 mm | 41.49% | 7 mm | 8 mm | 10 mm | 8 mm | 14 mm | 32.33% | 9 mm | 15 mm | 51.18% | 56.01% | 37.4% |
| O=c1c2cc(I)ccc2nc(Cc2ccccc2Nc2ccccc2)n1NC1=NNC(c2ccccc2Cl)C1 (configuration not stated) | 0 mm | 0 mm | 7 mm | 44.39% | 17 mm | 16 mm | 45.27% | 0 mm | 0 mm | 6 mm | 7 mm | 19 mm | 44.45% | 7 mm | 20 mm | 66.9% | 76.62% | 48.61% |
| O=c1c2cc(I)ccc2nc(Cc2ccccc2Nc2ccccc2)n1NC1=NNC(c2cccc(Cl)c2)C1 (configuration not stated) | 0 mm | 0 mm | 6 mm | 44.39% | 14 mm | 12 mm | 41.49% | 0 mm | 0 mm | 6 mm | 6 mm | 15 mm | 40.81% | 6 mm | 16 mm | 53.99% | 59.53% | 44.72% |
| O=c1c2cc(I)ccc2nc(Cc2ccccc2Nc2ccccc2)n1NC1=NNC(c2ccc(Cl)cc2)C1 (configuration not stated) | 0 mm | 0 mm | 6 mm | 44.39% | 16 mm | 15 mm | 41.49% | 0 mm | 0 mm | 6 mm | 6 mm | 17 mm | 40.81% | 7 mm | 18 mm | 58.12% | 67.26% | 48.61% |
| O=c1c2cc(I)ccc2nc(Cc2ccccc2Nc2ccccc2)n1NC1=NNC(c2ccccc2[N+](=O)[O-])C1 (configuration not stated) | 13 mm | 11 mm | 17 mm | 55.29% | 15 mm | 15 mm | 63.61% | 12 mm | 13 mm | 16 mm | 14 mm | 17 mm | 47.67% | 15 mm | 18 mm | 58.12% | 68.81% | 55.43% |
| O=c1c2cc(I)ccc2nc(Cc2ccccc2Nc2ccccc2)n1NC1=NNC(c2cccc([N+](=O)[O-])c2)C1 (configuration not stated) | 11 mm | 15 mm | 14 mm | 52.83% | 13 mm | 11 mm | 52.61% | 16 mm | 12 mm | 15 mm | 19 mm | 14 mm | 62.3% | 19 mm | 15 mm | 51.18% | 56.01% | 67.47% |
| O=c1c2cc(I)ccc2nc(Cc2ccccc2Nc2ccccc2)n1NC1=NNC(c2ccc([N+](=O)[O-])cc2)C1 (configuration not stated) | 13 mm | 12 mm | 16 mm | 55.57% | 14 mm | 13 mm | 58.83% | 14 mm | 11 mm | 15 mm | 16 mm | 15 mm | 54.75% | 17 mm | 16 mm | 51.52% | 59.53% | 61.15% |
